According to patent publication US6387907B1, “Use of serotonin agonists to alleviate disordered breathing episodes in a mammal” (The Trustees of the University of Pennsylvania, priority 1997, dated 2002):

Experiments:
English bulldogs [1] = assay: Upper airway dilator muscle (GH, SH) EMG activity during wakefulness after i.v. serotonin antagonist; assay type: in vivo, English bulldog; conditions: mean±SE; for GH peak amplitude, mean: four dogs, baseline 11.86±2.17; for SH amplitude: baseline 14.41±3.93
From the text: Following the baseline sleep study to document sleep-disordered breathing, each dog underwent a surgical procedure for the implantation of recording electrodes. For this procedure, dogs were premedicated with 5 to 10 micrograms per kilogram body weight atropine sulfate intramuscularly. In the cases of two bulldogs experiencing severe sleep-disordered breathing, intubation and general anesthesia were thought to pose a significant risk for postoperative respiratory failure. These two dogs were therefore sedated only using 20 to 40 micrograms per kilogram body weight oxymorphone administered intramuscularly. The six remaining dogs were anesthetized initially with sodium thiopental (15 to 30 milligrams per kilogram body weight) administered intravenously. The dogs were intubated and maintained under general anesthesia using 0.5 to 2.5% (v/v) inhalational halothane throughout the procedure.
Recording electrodes were implanted for the study of diaphragm and upper airway dilator muscle activity. Electrodes were fashioned from 0.7 millimeter multi-stranded Teflon-coated stainless steel wire. The insulation was stripped from 5 to 8 millimeters at the proximal tip. The proximal tip of each electrode was implanted transcutaneously into the relevant musculature using methods described by Basmajian et al. (1962, J. Appl. Physiol. 17:839).
(§1) Five diaphragm electromyographic (DIA EMG) electrodes were implanted in the costal musculature of the right hemidiaphragm 7 to 9 centimeters lateral to the xyphoid process. Three other electrodes were embedded into the right sternohyoid (SH) muscle and, three more were embedded into the right geniohyoid (GH) muscle. Both SH and GH muscles are readily palpable in the English bulldog.
Two ground electrodes were embedded transcutaneously contacting both the occipital skull and dorsal neck musculature. Distal tips of all electrodes were soldered onto a 25-pin Winchester-type connector. Electrodes and the connector were secured to each dog with elastic adhesive dressings over the torso and neck.
(§2) All studies were conducted using an unrestrained dog, either housed within a well-ventilated, electronically shielded, clear Plexiglass™ recording chamber or seated atop a table in the recording room. In either case, an investigator remained with the dog throughout the study to observe the dog's head and neck movements and to document the behavioral state of the dog. EMG signals were band-pass filtered at 50 to 2,000 Hertz. DIA EMG signals were passed through an analog EKG blanker (CWE EKG blanker; CWE, Ardmore, Pa.) and then through a third-order Paynter filter (CWE MA) having a 100-millisecond time constant to obtain a moving average of the DIA EMG. Signals of the SH and GH EMG were also passed through Paynter filters with the same time constants (100 ms) to obtain moving averages of these signals. Oxyhemoglobin saturation was measured continuously with a Biox IIA oximeter attached to the dog's pinna. Signals for the GH EMG, GH moving average (MA), SH EMG, SH MA, DIA EMG, DIA MA, and oxyhemoglobin saturations were recorded polygraphically (10 millimeters per second) using a chart recorder with high frequency response, i.e., as much as 10 kHz (Gould ES1000; Gould Instruments, Cleveland, Ohio). Signals were also recorded on analog tape using an eight-channel FM tape recorder (A. R. Vetter, Roseburg, Pa.).
The effects of serotonin antagonists on upper airway dilator muscle activity and breathing during wakefulness were assessed. Serotonin antagonists which were administered were methysergide maleate and ritanserin.
Ritanserin is a relatively selective serotonin antagonist at types 1C and 2 serotonin receptors (Devaud et al., 1992, J. Neurochem. 59:1459-1466). Ritanserin was selected for study on the basis that the IC and 2 subtypes of serotonin receptors appear to be involves in serotonin facilitation of hypoglossal motoneurons in vivo (Kugin et al., supra). […]

English bulldogs [2] = assay: Diaphragm (DIA) EMG activity during wakefulness after i.v. serotonin antagonist; assay type: in vivo, English bulldog
Procedure: as §1, §2
After obtaining baseline recordings of all variables for at least 5 minutes during quiet wakefulness and after obtaining recordings during the 5 minutes following administration of a saline control injection, 0.25 to 0.50 milligrams per kilogram body weight of one of the serotonin antagonists was administered to each dog through a peripheral intravenous line. All variables were continuously recorded. Injections were repeated every 6 minutes either until a total dose of 1 milligram per kilogram body weight had been administered or until the oxygen saturations fell below 85%. These limits were deemed to ensure the dogs' safety, based on an initial study using one dog. This dog, EBD-G was hypoxic at baseline and developed profound reductions in UAW muscle activity with desaturations to 75% after a total dose of 1.0 milligram per kilogram body weight of methysergide. The interval between repeated injections was selected to be 6 minutes to allow for 5 minute sampling periods for each dose. The duration of action of serotonin antagonists is known to be greater than 60 minutes (Bredberg et al., supra; Devaud et al., supra).
The effects of serotonin antagonists on diaphragm activity were similarly analyzed. Briefly, the measures of diaphragm activity were the peak amplitudes for all respiratory bursts in each condition. […] Acquisition of these measures has also been previously described (Hendricks et al., 1991, Am. Rev. Respir. Dis. 144:1112-1120). Mean values across all respiratory bursts of a 5 minute sample period were determined for each dog, and these values were used to perform repeated measures of ANOVA comparing baseline values with post-administration values.

Cc1nc2sccn2c(=O)c1CCN1CCC(=C(c2ccc(F)cc2)c2ccc(F)cc2)CC1 [ritanserin]
GH peak amplitude, mean (English bulldogs [1]; 0.25 mg/kg i.v.): 6.42±1.12 arbitrary units | SH amplitude (English bulldogs [1]; 0.25 mg/kg i.v.): 10.90±2.99 arbitrary units | percent suppression of GH activity (English bulldogs [1]; 0.25 mg/kg i.v., quiet waking): 40.0±6.5% | GH peak amplitude, mean (English bulldogs [1]; 0.50 mg/kg i.v. cumulative): 7.23±2.01 arbitrary units | SH peak amplitude (English bulldogs [1]; 0.50 mg/kg i.v., baseline ritanserin 14.41±3.93, methysergide 5.75±0.18): 9.08±1.32 arbitrary units | GH peak amplitude, mean (English bulldogs [1]; 0.75 mg/kg i.v. cumulative): 7.44±2.48 arbitrary units | SH amplitude (English bulldogs [1]; 0.75 mg/kg i.v. cumulative): 7.43±0.55 arbitrary units | DIA peak amplitude as percentage of the baseline value (English bulldogs [2]; 0.25 mg/kg i.v.): 85.76±3.30% | DIA peak amplitude, mean (English bulldogs [2]; 0.25 mg/kg i.v., mean±SE, six dogs, baseline 17.63±2.79): 15.03±2.45 arbitrary units | percent suppression of DIA activity (English bulldogs [2]; 0.25 mg/kg i.v., mean±SE, quiet waking, dogs with GH data): 17.0±3.6% | DIA peak amplitude as percentage of the baseline value (English bulldogs [2]; 0.50 mg/kg i.v.): 95.22±5.81% | DIA peak amplitude, mean (English bulldogs [2]; 0.50 mg/kg i.v., mean±SE, baseline ritanserin 17.63±2.79, methysergide 7.07±2.37): 16.12±2.30 arbitrary units | DIA peak amplitude as percentage of the baseline value (English bulldogs [2]; 0.75 mg/kg i.v. cumulative): 87.33±5.18% | DIA peak amplitude, mean (English bulldogs [2]; 0.75 mg/kg i.v. cumulative, mean±SE, six dogs, baseline 17.63±2.79): 14.98±2.06 arbitrary units
